# In patent US7776862B2, “Pyridyl and phenyl substituted piperazine-piperidines with CXCR3 antagonist activity” (Schering Corporation, priority 2005, dated 2010):
# Target: T1, human CXCR3 (N-delta 4) (Homo sapiens, UniProt P49682)
# T1 construct: CD8 leader; Flag tag; expressed in transfected cells; membranes used
# T1 sequence (P49682 5-368 limits assumed): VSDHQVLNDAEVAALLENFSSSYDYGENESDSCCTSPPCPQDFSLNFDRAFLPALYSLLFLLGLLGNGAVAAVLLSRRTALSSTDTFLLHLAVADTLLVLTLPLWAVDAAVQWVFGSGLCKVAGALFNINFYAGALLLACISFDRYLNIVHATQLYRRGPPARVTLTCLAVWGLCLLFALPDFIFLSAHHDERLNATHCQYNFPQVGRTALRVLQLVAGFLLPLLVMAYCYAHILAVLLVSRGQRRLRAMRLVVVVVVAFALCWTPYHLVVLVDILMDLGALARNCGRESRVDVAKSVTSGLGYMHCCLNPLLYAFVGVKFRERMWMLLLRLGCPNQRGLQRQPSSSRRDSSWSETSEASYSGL
# Test: Human CXCR3 (N-delta 4) scintillation proximity assay (SPA), [125I] IP-10 binding
# Settings: IC50 rating; Ba/F3-hCXCR3 (N-delta 4) membranes, 25 pM [125I] IP-10
# Outline: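 IP-10 and compound titrations added together. The receptor source was SPA beads bearing membranes from Ba/F3 cells transfected with human CXCR3 (N-delta 4) carrying a CD8 leader and Flag tag.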
row,SMILES,IC50
1,CC1(N2CCN(c3ncc(C(=O)NCC4CCCCC4)cc3Cl)CC2)CCN(Cc2ccc(Cl)cc2)CC1 [compound 202],0.025 to 0.1 µM
2,Cc1cc(C(=O)NCC2CCCCC2)cnc1N1CCN(C2CCN(Cc3ccc(Cl)cc3)CC2)CC1 [compound 203],> 0.1 µM
3,C[C@H]1CN(c2ccc(C(=O)NCc3ccc(F)c(F)c3)cc2Cl)CCN1C1(C)CCN(Cc2ccc(Cl)cc2)CC1 [compound 204],0.025 to 0.1 µM
4,CNC(=O)c1cnc(N2CCN(C3(C)CCN(Cc4ccc(Cl)cc4)CC3)[C@@H](C)C2)c(Cl)c1 [compound 205],> 0.1 µM
5,CC1(N2CCN(c3ncc(C(=O)NCc4ccc(Cl)c(Cl)c4)cc3Cl)CC2)CCN(Cc2ccc(Cl)cc2)CC1 [compound 206],0.025 to 0.1 µM
6,CC1(N2CCN(c3ncc(C(=O)NCc4ccc(F)c(F)c4)cc3Cl)CC2)CCN(Cc2ccc(Cl)cc2)CC1 [compound 207],> 0.1 µM
7,CCNC(=O)c1cnc(N2CCN(C3(CC)CCN(Cc4ccc(Cl)cc4)CC3)CC2)c(Cl)c1 [compound 208],> 0.1 µM
8,CCNC(=O)c1cnc(N2CCN(C3CCN(Cc4ccc(Cl)cc4)CC3C)[C@@H](C)C2)c(Cl)c1 (stereo partly drawn) [compound 209],< 0.025 µM
9,CCNC(=O)c1cnc(N2CCN(C3CCN(Cc4ccc(Cl)cc4)CC3)[C@@H](C(C)C)C2)c(Cl)c1 [compound 210],< 0.025 µM
10,CCNC(=O)c1cnc(N2CCN(C3CCN(C(=O)c4ccc(Cl)cc4)CC3)[C@@H](C(C)C)C2)c(Cl)c1 [compound 211],> 0.1 µM
11,CCNC(=O)c1cnc(N2CCN(C3CCN(Cc4ccc(Cl)cc4F)CC3)[C@@H](CC)C2)c(Cl)c1 [compound 212],< 0.025 µM
12,CCNC(=O)c1cnc(N2CCN(C3CCN(Cc4ccc(Cl)cc4)CC3)[C@@H](CC)C2)c(Cl)c1 [compound 213],< 0.025 µM
13,CCNC(=O)c1cnc(N2C[C@H](CC)N(C3CCN(Cc4ccc(Cl)cc4)CC3)C[C@H]2C)c(Cl)c1 [compound 214],< 0.025 µM
14,CC[C@H]1CN(c2ncc(C(=O)NC3CC3)cc2Cl)CCN1C1CCN(Cc2ccc(Cl)cc2F)CC1 [compound 215],< 0.025 µM
15,CC[C@H]1CN(c2ncc(C(=O)NC(C)C)cc2Cl)CCN1C1CCN(Cc2ccc(Cl)cc2)CC1 [compound 216],< 0.025 µM
16,CCNC(=O)c1cnc(N2C[C@H](CC)N(C3CCN(Cc4ccc(Cl)cc4F)CC3)C[C@H]2C)c(Cl)c1 [compound 217],< 0.025 µM
17,CCNC(=O)c1cnc(N2CCN(C3CCN(Cc4ccc(I)cc4)CC3)[C@@H](CC)C2)c(Cl)c1 [compound 218],< 0.025 µM
18,CC[C@H]1CN(c2ncc(C(=O)NC)cc2Cl)CCN1C1CCN(Cc2ccc(Br)cc2F)CC1 [compound 219],< 0.025 µM
19,CCNC(=O)c1cnc(N2CCN(C3CCN(Cc4ccc(Cl)cc4)C(C)C3)[C@@H](CC)C2)c(Cl)c1 (stereo partly drawn) [compound 220],< 0.025 µM
20,CC[C@H]1CN(c2ncc(C(=O)NCc3ccc(F)c(F)c3)cc2Cl)CCN1C1CCN(Cc2ccc(Cl)cc2)CC1 [compound 221],< 0.025 µM
21,C[C@H]1CN(c2ncc(C(=O)NCc3ccc(F)c(F)c3)cc2Br)CCN1C1CCN(Cc2ccc(Cl)cc2)CC1 [compound 222],< 0.025 µM
22,CC[C@H]1CN(c2ncc(C(=O)NC)cc2Cl)CCN1C1CCN(Cc2ccc(Cl)cc2)CC1 [compound 223],< 0.025 µM
23,CC[C@H]1CN(c2ncc(C(=O)NC)cc2Cl)CCN1C1CCN(Cc2ccc(Cl)cc2F)CC1 [compound 224],< 0.025 µM
24,C[C@H]1CN(c2ncc(C(=O)NCC3CCCCC3)cc2Br)CCN1C1CCN(Cc2ccc(Cl)cc2)CC1 [compound 225],< 0.025 µM
25,C[C@H]1CN(c2ncc(C(=O)NCc3ccc(F)c(F)c3)cc2Cl)CCN1C1CCN(Cc2ccc(Cl)cc2)CC1 [compound 226],< 0.025 µM

row,SMILES,IC50
1,CCNC(=O)c1cnc(N2CCN(C3CCN(Cc4ccc(Cl)cc4)CC3)[C@@H](C)C2)c(Cl)c1 [compound 227],< 0.025 µM
2,C[C@H]1CN(c2ncc(C(=O)NCC3CCCCC3)cc2Cl)CCN1C1CCN(Cc2ccc(Cl)cc2)CC1 [compound 228],< 0.025 µM
3,CCNC(=O)c1cc(Cl)c(N2CCN(C3CCN(Cc4ccc(Cl)cc4F)CC3)[C@@H](CC)C2)[n+]([O-])c1 [compound 229],< 0.025 µM
4,C[C@H]1CN(c2ncc(C(=O)NCc3ccc(Cl)c(Cl)c3)cc2Cl)CCN1C1CCN(Cc2ccc(C#N)cc2)CC1 [compound 230],< 0.025 µM
5,CCNC(=O)c1cnc(N2CCN(C3CCN([C@H](C)c4ccc(Cl)cc4)CC3)[C@@H](C)C2)c(Cl)c1 [compound 231],< 0.025 µM
6,CNC(=O)c1cnc(N2CCN(C3CCN([C@H](C)c4ccc(Cl)cc4)CC3)[C@@H](C)C2)c(Cl)c1 [compound 232],< 0.025 µM
7,C[C@H]1CN(c2ncc(C(=O)Nc3ccon3)cc2Cl)CCN1C1CCN(Cc2ccc(Cl)cc2)CC1 [compound 233],< 0.025 µM
8,C[C@H]1CN(c2ncc(C(=O)NCc3ccc(F)c(F)c3)cc2Cl)CCN1C1CCN(Cc2ccc(C#N)cc2)CC1 [compound 234],< 0.025 µM
9,C[C@@H]1CN(c2ncc(C(=O)NCC3CCCCC3)cc2Cl)CCN1C1CCN(Cc2ccc(C#N)cc2)CC1 [compound 235],< 0.025 µM
10,CC(C)NC(=O)c1cnc(N2CCN(C3CCN(Cc4ccc(Cl)cc4)CC3)[C@@H](C)C2)c(Cl)c1 [compound 236],< 0.025 µM
11,CNC(=O)c1cnc(N2CCN(C3CCN(Cc4ccc(Cl)cc4)CC3)[C@@H](C)C2)c(Br)c1 [compound 237],< 0.025 µM
12,CCNC(=O)c1cnc(N2CCN(C3CCN(C(C)c4ccc(Cl)cc4)CC3)[C@@H](C)C2)c(Cl)c1 (stereo partly drawn) [compound 239],< 0.025 µM
13,CNC(=O)c1cnc(N2CCN(C3CCN(Cc4ccc(Br)cc4F)CC3)[C@@H](C)C2)c(Cl)c1 [compound 240],< 0.025 µM
14,CNC(=O)c1cnc(N2CCN(C3CCN(Cc4ccc(Cl)cc4)CC3)[C@@H](C)C2)c(Cl)c1 [compound 241],< 0.025 µM
15,C[C@@H]1CN(c2ncc(C(=O)NCC3CCCCC3)cc2Cl)CCN1C1CCN(Cc2ccc(Cl)cc2)CC1 [compound 242],< 0.025 µM
16,CNC(=O)c1cnc(N2CCN(C3CCN(C(C)c4ccc(Cl)cc4)CC3)[C@@H](C)C2)c(Cl)c1 (stereo partly drawn) [compound 243],< 0.025 µM
17,CC[C@H]1CN(c2ncc(C(N)=O)cc2Cl)CCN1C1CCN(Cc2ccc(Cl)cc2F)CC1 [compound 244],< 0.025 µM
18,CC[C@H]1CN(c2ncc(C(=O)NC)cc2Cl)CCN1C1CCN(C(=O)c2ccc(Br)cc2)CC1 [compound 245],< 0.025 µM
19,CCNC(=O)c1cnc(N2CCN(C3CCN(C(=O)c4ccc(Cl)cc4)CC3)[C@@H](CC)C2)c(Cl)c1 [compound 246],< 0.025 µM
20,C[C@@H](NC(=O)c1cnc(N2CCN(C3CCN(Cc4ccc(Cl)cc4)CC3)[C@@H](C)C2)c(Cl)c1)C1CCCCC1 [compound 247],< 0.025 µM
21,C[C@H]1CN(c2ncc(C(=O)NCc3ccc(F)c(F)c3)cc2Cl)CCN1C1CCN(C(=O)c2ccc(C#N)cc2)CC1 [compound 248],< 0.025 µM
22,CCNC(=O)c1cnc(N2CCN(C3CCN(Cc4ccc(Cl)cc4F)CC3)C(C3CC3)C2)c(Cl)c1 (stereo not drawn) [compound 249],< 0.025 µM
23,C[C@@H]1CN(c2ncc(C(=O)NCC3CCCCC3)cc2Cl)CCN1C1CCN(C(=O)c2ccc(C#N)cc2)CC1 [compound 250],< 0.025 µM
24,CCNC(=O)c1cnc(N2CCN(C3CCN(Cc4ccc(Cl)cc4F)CC3)[C@@H](C)C2)c(Cl)c1 [compound 251],< 0.025 µM
25,CNC(=O)c1cnc(N2CCN(C3CCN(Cc4ccc(Cl)cc4)C(C)C3)[C@@H](C)C2)c(Cl)c1 (stereo partly drawn) [compound 252],< 0.025 µM

# Same assay, conditions: value given in text as example
row,SMILES,IC50
1,CCNC(=O)c1cnc(N2CCN(C3CCN(Cc4ccc(Cl)cc4F)CC3)[C@@H](CC)C2)c(Cl)c1 [compound 212],0.0002 µM
